Assays:
L6-myotubes [1] = test: Glucose uptake in differentiated L6-myotubes (Biological Example 2); format: cell-based; details: glucose uptake in differentiated L6-myotubes; compound at 10 μM, activity relative to isoproterenol at 10 μM; read-out: Biological example 2 (GU)
Procedure, shortened: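 Uptake was quantified as radioactivity in 0.2 M NaOH lysates after a 10 min pulse of 50 nM ^3H-2-deoxyglucose. The pulse followed two agonist exposures at 1×10^−5 M final (isoprenaline or test compound): 1 h 40 min, then 20 min in glucose-free medium after washing. L6 myotubes had been starved overnight in medium with 0.5% fatty-acid-free BSA.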

L6-myotubes [2] = test: Measurement of intracellular cAMP levels in differentiated L6-myotubes (Biological Example 3); format: cell-based; details: 0.25 h, intracellular cAMP in differentiated L6-myotubes; compound at 10 μM, activity relative to isoproterenol at 10 μM
Procedure, shortened: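 Intracellular cAMP quantified by AlphaScreen after ethanol extraction and lysis of L6 myotubes. Cells were serum-starved overnight, then exposed for 15 min to compound (final 1×10^−5 M) or isoprenaline in IBMX-containing (1 mM) HBSS buffer, pH 7.4.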

Row | Structure (SMILES) | Emax at 10 µM (L6-myotubes [1]) [%] | Emax at 10 µM (L6-myotubes [2]) [%]
1 | CO[C@H]1CC[C@@H](C(C)(C)NC[C@H](O)c2cncc(F)c2)CC1 [Compound 252, (R)-1-(5-fluoro-3-pyridyl)-2-{1-methyl-1-[(1s,4S)-4-methoxycyclohexyl]ethylamino}-1-ethanol] | < 25 | < 25
2 | CC12CCC([C@@H](O)c3ccncc3F)(CC1)N2 [Compound 253, (S)-(3-fluoro-4-pyridyl)(4-methyl-7-azabicyclo[[2.2.1]]hept-1-yl)methanol] | < 25 | < 25
3 | CC12CCC([C@H](O)c3ccncc3F)(CC1)N2 [Compound 254, (R)-(3-fluoro-4-pyridyl)(4-methyl-7-azabicyclo[[2.2.1]]hept-1-yl)methanol] | < 25 | < 25
4 | CO[C@@H]1CCC[C@H](C(C)(C)NC[C@H](O)c2cccc(F)c2)C1 [Compound 255, (R)-2-{1-[(1S,3R)-3-methoxycyclohexyl]-1-methylethylamino}-1-(m-fluorophenyl)-1-ethanol] | > 75 | < 25
5 | CO[C@H]1CCC[C@@H](C(C)(C)NC[C@H](O)c2cccc(F)c2)C1 [Compound 256, (R)-2-{1-[(1R,3S)-3-methoxycyclohexyl]-1-methylethylamino}-1-(m-fluorophenyl)-1-ethanol] | > 75 | 25 to 50
6 | CO[C@@H]1CCC[C@H](C(C)(C)NC[C@H](O)c2cncc(F)c2)C1 [Compound 257, (R)-2-{1-[(1S,3R)-3-methoxycyclohexyl]-1-methylethylamino}-1-(5-fluoro-3-pyridyl)-1-ethanol] | 50 to 75 | < 25
7 | CO[C@H]1CC[C@@H](CCCNC[C@H](O)c2cccc(F)c2)CC1 [Compound 258, (R)-1-(m-fluorophenyl)-2-{3-[(1s,4R)-4-methoxycyclohexyl]propylamino}-1-ethanol] | > 75 | 50 to 75
8 | CO[C@H]1CC[C@H](CCCNC[C@H](O)c2cccc(F)c2)CC1 [Compound 259, (R)-1-(m-fluorophenyl)-2-{3-[(1r,4S)-4-methoxycyclohexyl]propylamino}-1-ethanol] | 25 to 50 | < 25
9 | CO[C@H]1CC[C@@H](CCCNC[C@H](O)c2cncc(F)c2)CC1 [Compound 260, (R)-1-(5-fluoro-3-pyridyl)-2-{3-[(1s,4R)-4-methoxycyclohexyl]propylamino}-1-ethanol] | > 75 | < 25
10 | CO[C@H]1CC[C@H](CCCNC[C@H](O)c2cncc(F)c2)CC1 [Compound 261, (R)-1-(5-fluoro-3-pyridyl)-2-{3-[(1r,4S)-4-methoxycyclohexyl]propylamino}-1-ethanol] | < 25 | < 25
11 | O[C@@H](CNC[C@H]1CC[C@@H](OCc2ccccc2)CC1)c1cccc(F)c1 [Compound 262, (R)-1-(m-fluorophenyl)-2-({[(1s,4S)-4-(benzyloxy)cyclohexyl]methyl}amino)-1-ethanol] | 25 to 50 | < 25
12 | O[C@@H](CNC[C@H]1CC[C@@H](OCc2ccccc2)CC1)c1cncc(F)c1 [Compound 263, (R)-1-(5-fluoro-3-pyridyl)-2-({[(1s,4S)-4-(benzyloxy)cyclohexyl]methyl}amino)-1-ethanol] | > 75 | < 25
13 | CO[C@H]1CC[C@@H](CCC(C)(C)NC[C@H](O)c2cccc(F)c2)CC1 [Compound 264, (R)-2-{1,1-dimethyl-3-[(1s,4R)-4-methoxycyclohexyl]propylamino}-1-(m-fluorophenyl)-1-ethanol] | > 75 | 25 to 50
14 | CO[C@H]1CC[C@H](CCC(C)(C)NC[C@H](O)c2cccc(F)c2)CC1 [Compound 265, (R)-2-{1,1-dimethyl-3-[(1r,4S)-4-methoxycyclohexyl]propylamino}-1-(m-fluorophenyl)-1-ethanol] | 50 to 75 | < 25
15 | CO[C@H]1CC[C@@H](CCC(C)(C)NC[C@H](O)c2cncc(F)c2)CC1 [Compound 266] | > 75 | < 25
16 | CO[C@H]1CC[C@H](CCC(C)(C)NC[C@H](O)c2cncc(F)c2)CC1 [Compound 267, (R)-2-{1,1-dimethyl-3-[(1r,4S)-4-methoxycyclohexyl]propylamino}-1-(5-fluoro-3-pyridyl)-1-ethanol] | 25 to 50 | < 25
17 | O[C@@H](CNC[C@H]1CC[C@@H](O)CC1)c1cccc(F)c1 [Compound 268, (R)-1-(m-fluorophenyl)-2-({[(1s,4S)-4-hydroxycyclohexyl]methyl}amino)-1-ethanol] | 25 to 50 | < 25

Row | Structure (SMILES) | Emax at 10 µM (L6-myotubes [1]) [%] | Emax at 10 µM (L6-myotubes [2]) [%]
18 | O[C@@H](CNC[C@H]1CC[C@@H](O)CC1)c1cncc(F)c1 [Compound 269, (R)-1-(5-fluoro-3-pyridyl)-2-({[(1s,4S)-4-hydroxycyclohexyl]methyl}amino)-1-ethanol] | 25 to 50 | < 25
19 | CO[C@H]1CCC[C@@H](C(C)(C)NC[C@H](O)c2cncc(F)c2)C1 [Compound 270, (R)-2-{1-[(1R,3S)-3-methoxycyclohexyl]-1-methylethylamino}-1-(5-fluoro-3-pyridyl)-1-ethanol] | > 75 | 50 to 75
20 | O[C@@H](CNC[C@H]1CC[C@H](OCc2ccccc2)CC1)c1cccc(F)c1 [Compound 271, (R)-1-(m-fluorophenyl)-2-({[(1r,4R)-4-(benzyloxy)cyclohexyl]methyl}amino)-1-ethanol] | 25 to 50 | < 25
21 | O[C@@H](CNC[C@H]1CC[C@H](O)CC1)c1cccc(F)c1 [Compound 272, (R)-1-(m-fluorophenyl)-2-({[(1r,4R)-4-hydroxycyclohexyl]methyl}amino)-1-ethanol] | 25 to 50 | < 25
22 | O[C@@H](CNC[C@H]1CC[C@H](OCc2ccccc2)CC1)c1cncc(F)c1 [Compound 273, (R)-1-(5-fluoro-3-pyridyl)-2-({[(1r,4R)-4-(benzyloxy)cyclohexyl]methyl}amino)-1-ethanol] | 25 to 50 | < 25
23 | O[C@@H](CNC[C@H]1CC[C@H](O)CC1)c1cncc(F)c1 [Compound 274, (R)-1-(5-fluoro-3-pyridyl)-2-({[(1r,4R)-4-hydroxycyclohexyl]methyl}amino)-1-ethanol] | < 25 | < 25
24 | O[C@@H](CNCCC[C@H]1CC[C@@H](OCc2ccccc2)CC1)c1cncc(F)c1 [Compound 275, (R)-1-(5-fluoro-3-pyridyl)-2-{3-[(1s,4R)-4-(benzyloxy)cyclohexyl]propylamino}-1-ethanol] | 50 to 75 | < 25
25 | O[C@@H](CNCCC[C@H]1CC[C@H](OCc2ccccc2)CC1)c1cncc(F)c1 [Compound 276, (R)-1-(5-fluoro-3-pyridyl)-2-{3-[(1r,4S)-4-(benzyloxy)cyclohexyl]propylamino}-1-ethanol] | 25 to 50 | < 25
26 | O[C@@H](CNCCC[C@H]1CC[C@@H](OCc2ccccc2)CC1)c1cccc(F)c1 [Compound 277, (R)-1-(m-fluorophenyl)-2-{3-[(1s,4R)-4-(benzyloxy)cyclohexyl]propylamino}-1-ethanol] | 25 to 50 | < 25
27 | O[C@@H](CNCCC[C@H]1CC[C@H](OCc2ccccc2)CC1)c1cccc(F)c1 [Compound 278, (R)-1-(m-fluorophenyl)-2-{3-[(1r,4S)-4-(benzyloxy)cyclohexyl]propylamino}-1-ethanol] | 25 to 50 | < 25
28 | CC(C)(NC[C@H](O)c1cccc(F)c1)[C@H]1CC[C@H](OCc2ccccc2)CC1 [Compound 279, (R)-1-(m-fluorophenyl)-2-{1-methyl-1-[(1r,4R)-4-(benzyloxy)cyclohexyl]ethylamino}-1-ethanol] | 50 to 75 | < 25
29 | CC(C)(NC[C@H](O)c1cccc(F)c1)[C@H]1CC[C@@H](OCc2ccccc2)CC1 [Compound 280, (R)-1-(m-fluorophenyl)-2-{1-methyl-1-[(1s,4S)-4-(benzyloxy)cyclohexyl]ethylamino}-1-ethanol] | > 75 | < 25
30 | CC(C)(NC[C@H](O)c1cncc(F)c1)[C@H]1CC[C@H](OCc2ccccc2)CC1 [Compound 281, (R)-1-(5-fluoro-3-pyridyl)-2-{1-methyl-1-[(1r,4R)-4-(benzyloxy)cyclohexyl]ethylamino}-1-ethanol] | 50 to 75 | < 25
31 | CC(C)(NC[C@H](O)c1cncc(F)c1)[C@H]1CC[C@@H](OCc2ccccc2)CC1 [Compound 282, (R)-1-(5-fluoro-3-pyridyl)-2-{1-methyl-1-[(1s,4S)-4-(benzyloxy)cyclohexyl]ethylamino}-1-ethanol] | 50 to 75 | < 25
32 | CC(C)(NC[C@H](O)c1cccc(F)c1)[C@H]1CC[C@H](O)CC1 [Compound 283, (R)-1-(m-fluorophenyl)-2-{1-methyl-1-[(1r,4R)-4-hydroxycyclohexyl]ethylamino}-1-ethanol] | 50 to 75 | < 25
33 | CC(C)(NC[C@H](O)c1cccc(F)c1)[C@H]1CC[C@@H](O)CC1 [Compound 284, (R)-1-(m-fluorophenyl)-2-{1-methyl-1-[(1s,4S)-4-hydroxycyclohexyl]ethylamino}-1-ethanol] | 50 to 75 | < 25
34 | CC(C)(NC[C@H](O)c1cncc(F)c1)[C@H]1CC[C@H](O)CC1 [Compound 285, (R)-1-(5-fluoro-3-pyridyl)-2-{1-methyl-1-[(1r,4R)-4-hydroxycyclohexyl]ethylamino}-1-ethanol] | 50 to 75 | < 25
